We go through four compounds from publication PMC8406311, “Change in Cofactor Specificity of Oxidoreductases by Adaptive Evolution of an Escherichia coli NADPH-Auxotrophic Strain” (mBio, 2021).

Holding throughout (assay type): biochemical
Experiment [1] addresses T1, MaeA (NAD+-dependent malic enzyme) (Escherichia coli, UniProt P26616).
T1 construct: N-terminal His-tag (modified pET22b(+)), expressed in E. coli BL21(DE3), HisTrap purified
T1 sequence (P26616 1-565): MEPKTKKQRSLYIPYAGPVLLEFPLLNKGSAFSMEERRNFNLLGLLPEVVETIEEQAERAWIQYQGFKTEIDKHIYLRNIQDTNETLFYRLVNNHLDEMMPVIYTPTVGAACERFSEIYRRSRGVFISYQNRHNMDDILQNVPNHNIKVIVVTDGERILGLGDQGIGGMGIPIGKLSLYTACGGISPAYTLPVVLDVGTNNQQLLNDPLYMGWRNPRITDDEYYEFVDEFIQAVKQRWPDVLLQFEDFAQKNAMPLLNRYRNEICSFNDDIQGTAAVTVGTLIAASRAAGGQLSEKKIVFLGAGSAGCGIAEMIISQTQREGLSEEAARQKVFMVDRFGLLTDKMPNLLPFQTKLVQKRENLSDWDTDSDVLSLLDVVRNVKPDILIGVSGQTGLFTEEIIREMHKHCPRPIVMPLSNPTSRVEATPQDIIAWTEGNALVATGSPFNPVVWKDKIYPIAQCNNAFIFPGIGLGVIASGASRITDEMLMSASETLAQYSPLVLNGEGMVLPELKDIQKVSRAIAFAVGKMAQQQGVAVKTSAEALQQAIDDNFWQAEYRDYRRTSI
The experiment is described as follows: NAD(P)H formation at […] nm, Michaelis-Menten fit. The settings on record: 50 mM Tris HCl pH 7.5, 10 mM MgCl2, 30 °C, apparent.

The target of experiment [2] is T2, MaeA (NAD+-dependent malic enzyme) (Escherichia coli, UniProt P26616, L176V/D336N).
T2 construct: N-terminal His-tag (modified pET22b(+)), expressed in E. coli BL21(DE3), HisTrap purified
T2 sequence (P26616 1-565 L176V/D336N): T1 sequence (P26616 1-565) with L176V, D336N
As to the kind of experiment: NAD(P)H formation at […] nm, Michaelis-Menten fit. The settings on record: 50 mM Tris HCl pH 7.5, 10 mM MgCl2, 30 °C; L-malate at 6 to 10 times its KM; apparent.

Experiment [3] concerns the target T3, MaeA (NAD+-dependent malic enzyme) (Escherichia coli, UniProt P26616, D336N).
T3 construct: N-terminal His-tag (modified pET22b(+)), expressed in E. coli BL21(DE3), HisTrap purified
T3 sequence (P26616 1-565 D336N): T1 sequence (P26616 1-565) with D336N
The experiment is described as follows: NAD(P)H formation at […] nm, Michaelis-Menten fit. The settings on record: 50 mM Tris HCl pH 7.5, 10 mM MgCl2, 30 °C; L-malate at 6 to 10 times its KM; apparent.

For experiment [4], the target named is T4, Lpd (dihydrolipoamide dehydrogenase; lipoamide dehydrogenase) (Escherichia coli, UniProt P0A9P0, E205A).
T4 construct: gene lpdA; N-terminal His-tag (modified pET22b(+)), expressed in E. coli BL21(DE3) Codon+, HisTrap and gel filtration
T4 sequence (P0A9P0 2-474 E205A): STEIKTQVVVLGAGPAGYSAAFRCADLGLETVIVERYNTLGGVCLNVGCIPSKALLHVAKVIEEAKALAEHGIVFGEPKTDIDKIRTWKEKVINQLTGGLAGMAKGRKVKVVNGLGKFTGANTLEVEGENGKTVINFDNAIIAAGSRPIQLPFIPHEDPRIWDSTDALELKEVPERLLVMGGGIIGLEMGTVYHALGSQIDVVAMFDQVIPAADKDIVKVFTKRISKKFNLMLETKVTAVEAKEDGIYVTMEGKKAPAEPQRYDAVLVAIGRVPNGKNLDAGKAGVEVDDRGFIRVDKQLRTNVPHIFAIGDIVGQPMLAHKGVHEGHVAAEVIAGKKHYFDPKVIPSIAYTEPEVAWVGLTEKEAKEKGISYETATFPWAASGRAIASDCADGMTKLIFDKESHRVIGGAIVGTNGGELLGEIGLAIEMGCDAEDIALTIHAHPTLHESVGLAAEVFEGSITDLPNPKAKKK
The experiment is described as follows: NAD(P)H formation at […] nm, nonlinear fit of initial rates. The conditions noted are these: 100 mM Na phosphate, 100 mM KCl, 8 mM TCEP, pH 7.6, room temperature; 4 mM dihydrolipoamide; apparent.

In experiment [5] the target is T5, MaeA (NAD+-dependent malic enzyme) (Escherichia coli, UniProt P26616, I283N/D336A).
T5 construct: N-terminal His-tag (modified pET22b(+)), expressed in E. coli BL21(DE3), HisTrap purified
T5 sequence (P26616 1-565 I283N/D336A): T1 sequence (P26616 1-565) with I283N, D336A
As to the kind of experiment: NAD(P)H formation at […] nm, Michaelis-Menten fit. The conditions noted are these: 50 mM Tris HCl pH 7.5, 10 mM MgCl2, 30 °C; L-malate at 6 to 10 times its KM; apparent.

In experiment [6] the target is T6, Lpd (dihydrolipoamide dehydrogenase; lipoamide dehydrogenase) (Escherichia coli, UniProt P0A9P0, E205G).
T6 construct: gene lpdA; N-terminal His-tag (modified pET22b(+)), expressed in E. coli BL21(DE3) Codon+, HisTrap and gel filtration
T6 sequence (P0A9P0 2-474 E205G): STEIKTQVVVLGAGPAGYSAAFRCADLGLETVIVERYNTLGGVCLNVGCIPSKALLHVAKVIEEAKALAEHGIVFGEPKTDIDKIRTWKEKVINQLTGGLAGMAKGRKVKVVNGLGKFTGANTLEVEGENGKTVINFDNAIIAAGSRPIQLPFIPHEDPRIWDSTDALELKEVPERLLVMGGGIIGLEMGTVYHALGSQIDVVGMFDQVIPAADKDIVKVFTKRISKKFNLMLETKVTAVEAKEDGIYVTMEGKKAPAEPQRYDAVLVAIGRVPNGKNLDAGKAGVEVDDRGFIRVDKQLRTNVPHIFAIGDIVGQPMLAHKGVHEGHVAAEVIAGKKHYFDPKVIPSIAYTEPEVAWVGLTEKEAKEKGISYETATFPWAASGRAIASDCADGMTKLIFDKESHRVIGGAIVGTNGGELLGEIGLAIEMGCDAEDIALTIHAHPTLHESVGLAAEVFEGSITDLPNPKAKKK
As to the kind of experiment: NAD(P)H formation at […] nm, nonlinear fit of initial rates. The conditions noted are these: 100 mM Na phosphate, 100 mM KCl, 8 mM TCEP, pH 7.6, room temperature; 4 mM dihydrolipoamide; apparent.

The target in experiment [7] is T7, Lpd (dihydrolipoamide dehydrogenase; lipoamide dehydrogenase) (Escherichia coli, UniProt P0A9P0).
T7 construct: gene lpdA; N-terminal His-tag (modified pET22b(+)), expressed in E. coli BL21(DE3) Codon+, HisTrap and gel filtration
T7 sequence (P0A9P0 2-474): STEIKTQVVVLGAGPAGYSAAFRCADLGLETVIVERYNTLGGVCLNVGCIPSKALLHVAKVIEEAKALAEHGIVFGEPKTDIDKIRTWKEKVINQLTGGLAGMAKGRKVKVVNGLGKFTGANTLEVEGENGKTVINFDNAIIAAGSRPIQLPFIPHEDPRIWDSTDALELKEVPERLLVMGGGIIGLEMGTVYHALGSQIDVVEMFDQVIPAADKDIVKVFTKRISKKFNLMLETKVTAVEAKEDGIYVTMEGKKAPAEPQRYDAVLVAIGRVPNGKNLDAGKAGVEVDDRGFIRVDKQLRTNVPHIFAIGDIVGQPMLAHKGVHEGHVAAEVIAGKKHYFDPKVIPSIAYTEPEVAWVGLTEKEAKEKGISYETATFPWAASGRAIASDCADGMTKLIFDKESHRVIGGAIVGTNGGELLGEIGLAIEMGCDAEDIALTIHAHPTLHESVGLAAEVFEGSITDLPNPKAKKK
Described as above. The settings on record: 100 mM Na phosphate, 100 mM KCl, 8 mM TCEP, pH 7.6, room temperature, apparent.

Setting [8] is: L-malate at 6 to 10 times its KM.

Substitutions are numbered along the chain they refer to.

As usually defined, the Km is the concentration of substrate that gives half-maximal velocity. `O=C(O)C[C@H](O)C(=O)O` [L-malate]: the Km in experiment [1] (other substrates at 6 to 10 times their KM) worked out at 630 ± 40 µM.
As to `NC(=O)c1ccc[n+]([C@@H]2O[C@H](COP(=O)(O)OP(=O)(O)OC[C@H]3O[C@@H](n4cnc5c(N)ncnc54)[C@H](OP(=O)(O)O)[C@@H]3O)[C@@H](O)[C@H]2O)c1` [NADP^+], the Km is 16 ± 1 µM in experiment [2]; 91 ± 10 µM in experiment [3]; 2480 ± 690 µM in experiment [4]; 13 µM in experiment [5]; 3600 ± 400 µM in experiment [1] (setting [8]); 3480 ± 1030 µM in experiment [6].
On to `NC(=O)c1ccc[n+]([C@@H]2O[C@H](COP(=O)(O)OP(=O)(O)OC[C@H]3O[C@@H](n4cnc5c(N)ncnc54)[C@H](O)[C@@H]3O)[C@@H](O)[C@H]2O)c1` [NAD^+], for which the Km in experiment [2] turned out to be 270 ± 30 µM; in experiment [3] it was 1500 ± 200 µM; in experiment [4], 6350 ± 380 µM; in experiment [5], 270 ± 30 µM; in experiment [1] (setting [8]), 100 ± 20 µM; in experiment [7] (4 mM dihydrolipoamide), 440 ± 60 µM. The Km in experiment [6] was 9490 ± 1820 µM.
As to `NC(=O)CCCC[C@@H](S)CCS` [dihydrolipoamide], the Km in experiment [7] amounted to 180 ± 20 µM.
